Values quoted from earlier work as cited in patent publication US20250360119A1, “THIAZOLIDINEDIONES FOR THE TREATMENT OF MUSCULAR DYSTROPHIES” (The Johns Hopkins University, priority 2022, published 2025).

Legend:
[1] = clinical studies
aged mice = conditions: injected into the muscle directly

For `CN(CCOc1ccc(CC2SC(=O)NC2=O)cc1)c1ccccn1` (stereo not shown) [rosiglitazone], the cardiovascular toxicity [1] is given as “no longer considered significant issues”.

In the case of `CC1(COc2ccc(CC3SC(=O)NC3=O)cc2)CCCCC1` (stereo not shown) [ciglitazone, 5-[4-(1-methylcyclohexylmethoxy)benzyl]-thiazolidine-2,4-dione], the blood glucose levels (KKAy mice) is listed as “reduce blood glucose levels without increasing insulin secretion” and the peripheral insulin resistance (KKAy mice) is listed as “reduce peripheral insulin resistance”.

B1: recombinant GDF3: recombinant Growth Differentiation Factor 3, a member of the TGFβ family (protein, UniProt Q9NR23 251-364, looked up)
Growth/differentiation factor …: AAIPVPKLSCKNLCHRHQLFINFRDLGWHKWIIAPKGFMANYCHGECPFSLTISLNSSNYAFMQALMHAVDPEIPQAVCIPTKLSPISMLYQDNNDNVILRHYEDMVVDECGCG
In the case of B1, the “delay in muscle regeneration after CTX injury” value (aged mice) is listed as “able to alleviate some of the delay”.
